Assay results taken from patent US4560758A, “Process for preparing pyrrolo[1,2-a]imidazoles and imidazo[1,2-a]pyridines” (Pennwalt Corporation, priority 1984, dated 1985).
Several values for one entry are separate records, joined by “and”; a condition that tells them apart may be missing. Identical values can stand only once. Counter-ions that a name gives are not always drawn.

What was measured:
[1] = test system: antibody secreting cells in the spleen; assay: Kennedy Plaque Assay (humoral immune system depressed by 6-mercaptopurine; number of plaques); assay type: in vivo; settings: ip; 60 mg/Kg of 6 MP plus 6.25 mg/Kg (i.p.) of compound; read-out: Percent Restoration (+) or Suppression (-)
Method: In this assay, in which the in vitro model used was the Kennedy modification of the Jerne (or plaque) technique (J. C. Kennedy et al, Immunol., 20, p. 253 (1971)), the animal's humoral immune system is depressed artificially by the known immunosuppressant drug, 6-mercaptopurine (6-MP), and then the ability of a drug to either suppress it further or restore it towards normal is evaluated. The change in the number of plaques, which is a direct correlate of the change in the number of antibody secreting cells in the spleen, is used to measure this effect. For example, the compound of Example 11 results in greater than 100% restoration of the number of plaques and thus causes an immunoenhancement of the humoral system. In contrast, the compound of Example 28 results in about 24% further suppression of the number of plaques and thus behaves as an immunosuppressant.
of 6 MP plus 6.25 mg/Kg (i.p.)
^1 without 6MP treatment
^2 percent change from control (i.e., without 6MP)

[2] = test system: carrageenan-induced paw edemas; assay: Anti-inflammatory assay, carrageenan-induced paw edema; assay type: in vivo, Male, Sprague-Dawley rats
Method: The anti-inflammatory properties of various compounds of this invention were determined by carrageenan-induced paw edemas of test rats. Male, Sprague-Dawley rats (Blue Spruce Farm) were ordered at 125-140 g, housed for one week, and allowed food and water ad libitum. At the time of the experiments, only rats weighing 160-200 g were used.
All compounds were dissolved or suspended in a 0.5% water solution of Methocel and orally administered to groups of six rats each. Control rats received Methocel only. Two hours later (unless otherwise stated), paw edema was induced by subcutaneous injection into the plantar surface of the right hind paw of 0.1 ml of a 1.0% homogenized suspension of carrageenan.
Immediately, the volume of the paw was measured by immersing it in mercury to above the lateral mateolus. The mercury in a glass cylinder 25 mm in diameter and 60 mm deep was connected at the bottom on the cylinder by a column of water to a Statham transducer (model P23BB), range 0-5 cm of mercury pressure. The volume was recorded electronically on a Beckman recorder, R511. Three hours later, the inflamed paw volume was measured again, and the change in volume was recorded for each group. The percent inhibition of edema was calculated using the control group paw volume as 100% edema, i.e., as (the change in edema in the control group less the change in edema in the test group) times 100 divided by the change in edema in the control group.

mouse hepatitis virus = assay: Antiviral assay - hepatitis in mice; assay type: in vivo; settings: once daily for 3 days; for Mean Liver Score: day 4, 0 (normal) to 4 (extreme discoloration); for Percent Survival: day 21
Method: Female mice weighing approximately 21-24 grams were inoculated with 0.1 ml of a mouse liver suspension containing mouse hepatitis virus, which liver suspension is at a dilution of 10^-5.5. Starting twenty-four hours post-virus inoculation, the animals were intraperitoneally ("i.p.") or orally administered the test compound(s) once daily for 3 days. On day 4, one third to one half of each group of mice were sacrificed and their liver removed for examination. Each liver was scored and assigned a number from 0 (normal liver) to 4 (extreme discoloration). The mean liver score per group was computed. The number of animals surviving until termination of the study (day 21) was also recorded. Anti-hepatitis activity is evidenced by increased survivor numbers and improved liver scores.

Row | SMILES | change in vivo at 6.25 mg/kg [1] | Percent Inhibition of carrageenan induced edema ([2]; 50 mg/Kg p.o., 20 hrs. predosed) | Percent Inhibition of carrageenan induced edema ([2]; 50 mg/Kg p.o., dosed two hours before carrageenan) | Mean Liver Score (mouse hepatitis virus; 6.25 mg/Kg i.p., control 2.6) | Percent Survival (mouse hepatitis virus; 6.25 mg/Kg i.p., control 5%) | Mean Liver Score (mouse hepatitis virus; 12.5 mg/Kg i.p., control 2.6 (Examples 11, 16, 23), 3.4 (25, 26)) | Percent Survival (mouse hepatitis virus; 12.5 mg/Kg i.p., control 5% (Examples 11, 16, 23), 6% (25, 26)) | Mean Liver Score (mouse hepatitis virus; 25 mg/Kg i.p., control 2.6 (Examples 11, 23), 3.4 (25, 26)) | Percent Survival (mouse hepatitis virus; 25 mg/Kg i.p., control 5% (Examples 11, 23), 6% (25, 26)) | Percent Inhibition of carrageenan induced edema ([2]; 100 mg/Kg p.o., dosed two hours before carrageenan, hydrochloride)
1 | COC1(OC)CCCN2CC(c3ccccc3)N=C21 (centres unmarked) [Example 23, 2,3,5,6,7,8-Hexahydro-2-phenyl-8,8-dimethoxyimidazo [1,2-a]pyridine hydrochloride] | 64% | 32.1% | -3.2% | 1.7 | 40% | 1.0 | 70% | 1.3 | 50% | –
2 | Clc1cccc(Cl)c1SC1CCCN2CC(c3ccccc3)N=C12 (centres unmarked) [Example 20, 2,3,5,6,7,8-Hexahydro-2-phenyl-8-(2,6-dichlorophenylthio)imidazo[1,2-a]pyridine hydrochloride] | -49% | – | – | – | – | – | – | – | – | 33.3% and 39.6%
